In US20230028918A1, “COMPOSITIONS COMPRISING PKC-BETA INHIBITORS AND PROCESSES FOR THE PREPARATION THEREOF” (priority 2019, published 2023):
≈ marks a conversion by molar mass, not a printed value. Read-outs that look alike come from different tables or passages of the source.

Experiments:
pSHP2 (PKCβ cell assay) = assay: pSHP2 (PKCβ cell assay); type: cell-based
Excerpt: (§1) The methods for these determinations have been described (Grant, et al. 2010, Eur. J. Pharmacol. 627:16-25).

Human PKC delta = Human PKC delta (Homo sapiens, UniProt Q05655); assay: PKC inhibition, in vitro enzyme assay; type: biochemical
Excerpt: as §1

primary CLL cells [1] = assay: Immunoblot of BCR signaling in primary CLL cells; type: cell-based; conditions: versus vehicle control
Interleukin-8 release = assay: Interleukin-8 release; type: cell-based
Excerpt: as §1

[2] = system: primary CLL cells with WT and C481S BTK; assay: CD86 and HLA-DR expression on CpG-stimulated primary CLL cells with WT and C481S BTK (flow cytometry); type: cell-based; conditions: up to 10 μM, CpG stimulation, 48 hrs, baseline and post-relapse samples from ibrutinib treated patients
Description: Cryopreserved baseline samples and post-relapse samples from ibrutinib treated patients (n=2) were thawed and treated with up to 10 μM compound A and stimulated with 3.2 M CpG. CD86 (FIG. 3A) and HLA-DR (FIG. 3B) expression was measured by flow cytometry at 48 hrs. Mean fluorescence intensity (MFI) is reported. Error bars represent standard deviation.

PKCβ signaling = PKCβ signaling assay: SERBP1 phosphorylation after PMA + ionomycin in whole blood of CLL/SLL patients dosed with Compound A; type: in vivo, human; conditions: for inhibition at 100 mg / inhibition at 200 mg / inhibition at 250 mg: Homo sapiens
Description: A phosphor-flow assay was employed to measure the phosphorylation of SERBP1, a novel substrate for PKCP. Whole blood samples were taken at the appropriate time points from CLL patients receiving compound A as part of a phase 1 study, and were shipped overnight and processed for testing the next day. Whole blood was stimulated with PMA+ionomycin, cells were permeabilized, and the amount of SERBP1 phophorylation was measured. The reported data are the CD19+pSERBP1+ population, normalized to each patient's own unstimulated sample at the corresponding time point.
To monitor PKCβ mediated signaling, a biomarker marker assay was developed using Alexa-647 label anti-phospho_SERBP1 antibody.
Briefly, whole blood specimens from each patient was drawn into sodium citrate collection tubes. Samples will be shipped overnight to the flow cytometry lab for processing and testing
Duplicates will be prepared for each treatment condition per donor. The following conditions will be prepared for each donor, unstimulated and PMA and ionomycin stimulated samples. Whole blood 200 μL will be placed in appropriate size cryovial. The samples will be treated as described in Table 1 and incubated at 37° C., 5.0% CO2 for 25-30 minutes.
Following stimulation 2 mL 1×BD FACSLyse will be added, then vortexed and incubated for 12-15 minutes in the dark at ART. Samples will be stored immediately at −80° C. until testing.
Samples from each subject will be processed in batches with all timepoints and include a normal human control unstimulated and stimulated sample. All samples will be processed and collected in singlet.
Frozen samples will be thawed by placing samples in a 37° C. water or bead bath. Sample will be transferred to tubes and centrifuged at 1700 rpm, for 5 minutes at ambient room temperature (ART) with Brake on. Samples will be decanted and washed twice with 1 mL Stain Buffer (FBS). Samples will be resuspended in 200 μL Stain Buffer (FBS) and […] appropriate volume of fluorochrome-conjugated monoclonal surface antibodies will be added (Table 2).
Samples will be hand mixed and incubated for 15-20 minutes in the dark at ART. Samples will be washed twice with 1 mL Stain Buffer (FBS). After wash, 200 μL Fix/Perm buffer will be added to each sample, then vortexed and incubated for 30-35 minutes in the dark at 2-8° C. Samples will be washed twice with 1 ml 1× Permeabilization Buffer (Perm Buffer). 100 μL of 1× Perm Buffer and appropriate volume of pSERBP1 AF647 will be added (documented in the study paperwork) and incubated for 30-35 minutes in the dark at 2-8° C. Samples will be washed twice with 1 mL 1× Perm Buffer. Samples will be resuspended in 125 μL 1× Stain Buffer FBS for acquisition on the flow cytometer.
Flow cytometric data acquisition will be performed using the BD FACSCantoII™ which evaluates two scatter parameters and up to eight color fluorescence channels. Data will be acquired using BD FACSDiva™ software (version 6.1.3 or higher). The samples will be acquired to distinguish the cells of interest from other cell types in the peripheral blood by electronic gating on the basis of CD45 versus side scatter. The instrument will be set to collect 50,000 CD45+ lymphocyte events. Dual combination cytograms and/or histograms will be generated to illustrate the LL (−/−), LR (+/−), UL (−/+), UR (+/+) and/or interval gate for the fraction of the cells. The Flow Cytograms will be printed and maintained with study binder.
The Median Fluorescence Intensity for the AF647 channel will be reported for each population (CD45, CD3, CD19 and CD20). Relative % data will also be reported for CD3+, CD3−CD19+, CD3−CD20+, CD3−CD19+HLADR+CD86+, and CD3−CD20+HLADR+CD86+. Data will be analyzed by Microsoft Excel to obtain descriptive statistics; i.e. Mean, SD, and CV %.
The flow cytometry data are analyzed to determine the amount of SERBP1 phosphorylation following PMA/ionomycin stimulation.

[3] = Compound A plasma concentration and food effect in patients; type: in vivo, human; conditions: for Compound A Plasma Concentration: Day 8 pre-dose trough (Cmin); for concentration at 3 h post-dose on Day 8: human, plasma, Day 8, 3 h post-dose peak
physchem = conditions: pH 7
primary CLL cells [4] = assay: CCL3 and CCL4 secretion by primary CLL cells (ELISA); type: cell-based; conditions: 5 μM, presence or absence of anti-IgM ligation, 24 hrs
Clinical tolerability = type: in vivo; conditions: human, plasma, oral; clinical trial, compound taken with food; read-out: Plasma Cmax that is well-tolerated

Chain of Human PKC delta (Q05655 whole entry): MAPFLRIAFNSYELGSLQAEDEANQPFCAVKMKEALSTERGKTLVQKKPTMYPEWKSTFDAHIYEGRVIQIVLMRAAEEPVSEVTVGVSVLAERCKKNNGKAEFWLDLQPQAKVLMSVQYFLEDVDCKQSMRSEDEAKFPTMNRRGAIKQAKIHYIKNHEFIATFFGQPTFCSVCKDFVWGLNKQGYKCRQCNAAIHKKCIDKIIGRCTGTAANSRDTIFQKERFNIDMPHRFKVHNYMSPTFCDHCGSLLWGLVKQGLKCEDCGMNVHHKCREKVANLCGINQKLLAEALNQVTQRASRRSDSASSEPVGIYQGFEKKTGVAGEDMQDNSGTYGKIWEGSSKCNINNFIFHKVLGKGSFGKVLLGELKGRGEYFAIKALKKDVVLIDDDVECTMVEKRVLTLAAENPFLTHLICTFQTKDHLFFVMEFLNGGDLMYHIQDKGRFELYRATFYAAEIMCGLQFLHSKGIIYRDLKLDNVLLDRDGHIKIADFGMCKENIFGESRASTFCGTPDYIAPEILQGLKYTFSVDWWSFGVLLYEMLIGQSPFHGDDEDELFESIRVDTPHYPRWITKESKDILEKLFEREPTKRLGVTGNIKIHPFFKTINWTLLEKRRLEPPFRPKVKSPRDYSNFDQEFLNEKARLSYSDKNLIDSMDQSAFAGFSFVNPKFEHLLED

Structure (SMILES): Cc1ncc(F)c(Nc2n[nH]c3c2CN(C(=O)N2C[C@@H](C)N(CC4CCOCC4)C[C@@H]2C)C3(C)C)n1 [Compound A, 5-{[(2S,5R)-2,5-dimethyl-4-(tetrahydro-2H-pyran-4-ylmethyl)piperazin-1-yl]carbonyl}-N-(5-fluoro-2-methylpyrimidin-4-yl)-6,6-dimethyl-1,4,5,6-tetrahydropyrrolo[3,4-c]pyrazol-3-amine]
- IC50 (pSHP2 (PKCβ cell assay)): 9.8 nM
- Inhibition of PKC delta (Human PKC delta): does not significantly inhibit
- Phosphorylation of PKCβ and downstream targets (pPKCβ, pERK, pIκBα, pGSK3β) (primary CLL cells [1]): decreased phosphorylation
- IC50 (Interleukin-8 release): 39 nM
- CD86 and HLA-DR expression (MFI) [2]: reduces activation
- Mean Stimulation at Day 8 3 h Post-Dose Peak (PKCβ signaling; 100 mg BID, N = 1): 96%
- Mean Stimulation at Day 8 Pre-Dose Trough (Cmin) (PKCβ signaling; 100 mg BID, N = 1): 109%
- Mean Stimulation at Day 8 3 h Post-Dose Peak (PKCβ signaling; 200 mg BID, N = 3): 100%
- Mean Stimulation at Day 8 Pre-Dose Trough (Cmin) (PKCβ signaling; 200 mg BID, N = 3): 121%
- Mean Stimulation at Day 8 3 h Post-Dose Peak (PKCβ signaling; 250 mg BID, N = 3): 102%
- Mean Stimulation at Day 8 Pre-Dose Trough (Cmin) (PKCβ signaling; 250 mg BID, N = 3): 104%
- Phosphorylation of SERBP1 (CD19+pSERBP1+ population) (PKCβ signaling; CLL patients in phase 1 study, PMA + ionomycin stimulated whole blood): inhibits phosphorylation of SERBP1 in vivo
- inhibition at 100 mg (PKCβ signaling; 192 h, 100 mg BID, Day 8 pre-dose, read-out: % Inhibition of Stimulation at Trough (Cmin)): 51%
- inhibition at 200 mg (PKCβ signaling; 192 h, 200 mg BID, Day 8 pre-dose, read-out: % Inhibition of Stimulation at Trough (Cmin)): 70%
- inhibition at 250 mg (PKCβ signaling; 192 h, 250 mg BID, Day 8 pre-dose, read-out: % Inhibition of Stimulation at Trough (Cmin)): 97%
- inhibition at 100 mg (PKCβ signaling; 100 mg BID, Day 8, 3 h post-dose, read-out: % Inhibition of Stimulation at Peak): 122%
- inhibition at 200 mg (PKCβ signaling; 200 mg BID, Day 8, 3 h post-dose, read-out: % Inhibition of Stimulation at Peak): 102%
- inhibition at 250 mg (PKCβ signaling; 250 mg BID, Day 8, 3 h post-dose, read-out: % Inhibition of Stimulation at Peak): 98%
- Plasma concentration that completely suppresses PKCβ signaling (PKCβ signaling; whole blood samples from patients with CLL or SLL): 500 to 600 ng/mL
- Compound A Plasma Concentration ([3]; 100 mg BID): 186 ng/mL
- Compound A Plasma Concentration ([3]; 200 mg BID): 295 ng/mL
- Compound A Plasma Concentration ([3]; 250 mg BID): 542 ng/mL
- Effect of food on the PK profile ([3]; clinical trial data): does not have a significant effect
- concentration at 3 h post-dose on Day 8 ([3]; 100 mg BID): 587 ng/mL
- concentration at 3 h post-dose on Day 8 ([3]; 200 mg BID): 837 ng/mL
- concentration at 3 h post-dose on Day 8 ([3]; 250 mg BID): 1310 ng/mL
- Effect of food on the pharmacokinetics ([3]; single dose of the IR formulations): no significant effect
- solubility at 24 h (physchem): 1040 µg/mL (≈ 2080 µM)
- CCL3 and CCL4 secretion (primary CLL cells [4]): inhibition of pro-inflammatory cytokine expression
- Cmax (Clinical tolerability): ~2000 ng/mL
